In patent US8207195B2, “Method for treating neurological and neuropathic diseases using rho kinase inhibitor compounds” (priority 2008, dated 2012):
“Also recorded” adds a separate entry of the source.

Key:
[1] = system: ova-sensitized, ova-challenged mice; test: Prevention of airway hyperreactivity (Penh, methacholine) in ovalbumin-sensitized mice; type: in vivo, mouse; conditions: for airway hyperreactivity to metacholine: oral 15 μMol/kg once a day during days 27 to 31, tested Day 32
Description: Airway hyperreactivity is a downstream physiologic effect of inflammation in the mouse ovalbumin sensitization model. The objective of the experiment was to answer whether the decrease in inflammation due to ROCK inhibitor anti-inflammatory dosing results in the prevention of downstream physiological consequences as measured by Penh. […] The anti-inflammatory dosing paradigm consists of dosing the animals once a day starting on day 27 and finishing on either day 30 or 31 (1 hr prior to the aerosolized ovalbumin challenges on days 28 to 30) but not on day 32 when hyperreactivity evaluation occurs. […] Exposure to the methacholine doses consisted of a 3 minute period during which a nebulizer was aerosolizing the methacholine and an additional 3 minute period following the cessation of nebulization. […] Enhanced pause (Penh), a unitless index of airway hyperreactivity, is derived from the expiratory side of the respiratory waveform measured via the plethysmograph and is used as an indirect measure of airway resistance and hyperreactivity. […] Following the methacholine dose response, BALF was collected and all animals were anesthetized, bled and euthanized. […] The Penh value at each of the dose levels of methacholine represents the 6-minute average response. Change from baseline (CFB) in Penh was calculated at each methacholine dose and the area under the curve (AUC) for these CFB values was calculated using the trapezoidal rule. This same approach was applied for each mouse across multiple experiments. […] Data from equal experimental conditions across experiments performed on different days were pooled for statistical analysis and data reporting. […] A random intercept for each experiment was assumed to account for possible similarities of the results obtained from a given experiment (i.e., as a “blocking effect”). […] For FIG. 7, linear AUC values from compound treated mice were reported as a percent of linear AUC values from vehicle-treated ovalbumin-sensitized/ovalbumin-challenged (asthmatic) mice. […]

[2] = Rat oral pharmacokinetics (plasma); type: in vivo; conditions: 20-30 μmol/kg, mean n = 3
Method: Plasma (EDTA K2 anticoagulant) was collected from male, cannulated, CD Sprague Dawley rats to determine the pharmacokinetics of formulations containing compound inhibitors of Rho kinase. Each animal was dosed orally with a 4 ml/kg solution or suspension of each test compound in 10 mM acetate buffered saline, pH 4.5 at a final concentration range of 20-30 μmol/kg. Blood was collected at 0.25, 0.5, 1, 2, 4, 6, 8, and 24 hours. Plasma samples were assayed for the concentration of the test compound using an on-line, solid phase extraction LC/MS/MS analysis system.
Samples were analyzed on a QSTAR Elite, hybrid quadrupole time-of-flight mass spectrometer (Applied Biosystems, Framingham, Mass.) coupled with a Symbiosis Pharma integrated, on-line SPE-HPLC system (Spark Holland Inc., Plainsboro, N.J.). Analyst QS 2.0 software was used for instrument control, data acquisition and processing. […] Mobile Phase A consisted of 0.1% ammonium hydroxide in water and Mobile Phase B consisted of 0.1% formic acid in acetonitrile. Pharmacokinetic analyses were performed using WinNonlin software version 5.2 (Pharsight Corporation, Mountain View, Calif.).
As determined from the plasma concentration versus time curves, the time to peak and peak exposure are represented by the values Tmax and Cmax, respectively. The AUC values (nM*hr) shown were calculated as the areas under the plasma concentration versus time curves from time zero through the time of the last observable value and represent the total exposure of the compound over the course of the study. Half-life values or the amount of time required for the plasma levels of the compound to decline to half the initial value are represented as t½.

[3] = system: ova-sensitized, ova-challenged mice; test: Mouse ovalbumin sensitization model, anti-inflammatory dosing: BALF eosinophils and cytokines; type: in vivo; conditions: for Airway eosinophil infiltration (eosinophils per ml of BALF): dosed orally to day 31, anti-inflammatory dosing paradigm
Method: Male BALB/c mice were ordered from Charles River Laboratories (Raleigh, N.C.). The animals were approximately 19 to 21 grams at time of receipt. Upon arrival, the animals were randomized into groups of five males per cage and assigned to a dosing group. Animals were quarantined for 7 days under test conditions. They were observed daily for general health status and ability to adapt to the water bottles. Animals were sensitized on day 0 and 14 of study by an intraperitoneal injection with 20 μg of ovalbumin (ova) and 2.0 mg aluminum hydroxide (alum) which initiates the development of a specific T-helper (Th) cells type 2 resulting in asthmatic animals (denoted as Ova in the figures). One group of animals received an injection of saline to use as control animals (denoted as normal in the figures). […] Aerosol challenge consists of using an Aerogen Aeroneb nebulizer and controller with a particle size of 4-6 μm mass median aerodynamic diameter (MMAD) with a distribution of 400 μl per minute. This aerosol challenge is necessary to target the Th2-driven allergic inflammation in the lower airways.
The anti-inflammatory dosing paradigm (FIG. 1) was utilized to evaluate the anti-inflammatory effects of experimental compounds. […] On day 32 of the experiment, after measurement of airway hyperreactivity, BALF was collected and all animals were anesthetized, bled and euthanized.
Bronchoalveolar lavage fluid (BALF) was collected by infusing 3.0 ml of saline with 10% fetal calf serum into the lungs via the trachea and then withdrawing the fluid. The total amount of cells/ml of BALF fluid was determined via manual cell count on hemocytometer. The BALF was centrifuged, supernatant removed and analyzed for cytokine concentrations as described below, and cell pellet reconstituted in 500 μL of fluid. Cytospin slides were prepared from the cell pellet using 100 μL of fluid and spinning samples for 5 minutes at 5000 rpms in a cytospin centrifuge. Following Hema3 stain, relative percentages of individual leukocytes were determined on a 200 cell count for each sample. The final concentration of individual leukocyte cell types per ml of BALF was determined by multiplication of the relative percentage of individual leukocytes with the total amount of cells/ml of BALF fluid.
The concentrations of cytokines in the BALF samples were determined using commercially available Bio-plex kits (Bio-Rad) for the detection of mouse IL-5, IL-13, and Eotaxin. The analysis of cytokine levels was measured using the Bio-Plex 200 (Bio-Rad) system according to the manufacturer's instructions.

[4] = system: LPS-challenged mice; test: LPS-induced neutrophilia and cytokine production assay; type: in vivo, mouse; conditions: for IL-1β levels in BALF: intratracheal administration, LPS-challenged mice
Method: This assay is an in vivo assay of neutrophil accumulation and cytokine production that can be used to evaluate the activity of Rho Kinase inhibitor compounds of Formula I or II as anti-inflammatory agents in a whole animal model.
Male BALB/c mice, approximately 19 to 21 grams, were ordered from Charles River Laboratories (Raleigh, N.C.). All animals were challenged with aerosolized LPS (10 μg/ml) for 25 minutes on study day 0. LPS aerosol was generated using an Aerogen Aeroneb nebulizer and controller providing a flow of 400 μl/min and a particle size of 2-4 μm MMAD. Rolipram was administered i.p at 20 mg/kg. […] Four hours following LPS challenge, BALF was collected using a total of 3 ml of 0.9% sodium chloride containing 10% fetal calf serum. Total cell counts were determined using the Coulter Counter. For differential evaluations, BALF was centrifuged and cytospin slides prepared and stained with Hema3 stain. Manual leukocyte counts were then completed on 200 cells. The final concentration of individual leukocyte cell types per ml of BALF was determined by multiplication of the relative percentage of individual leukocytes with the total amount of cells/ml of BALF fluid. The concentration of IL-1β in the BALF samples was determined using commercially available Bio-plex kits (Bio-Rad). The analysis of cytokine levels was measured using the Bio-Plex 200 (Bio-Rad) system according to the manufacturer's instructions.

[5] = target: T1, ERK2 (Homo sapiens, UniProt P28482); test: Kinase panel screen (KinaseProfiler), ERK2; type: biochemical; conditions: 10 μM ATP
T1 construct: purchased Upstate, Millipore Bioscience Division (KinaseProfiler service)
Method: Compounds of Formulae I and II were examined for activity against a selected panel of kinases using the KinaseProfiler™ enzyme profiling services (Upstate, Millipore Bioscience Division). Percent kinase activity at 10 μM and 1 μM test compound and 10 μM ATP was determined against 40 wild-type recombinant human kinases according to Upstate's standard protocol: ASK1, BTK, CSK, c-RAF, GCK, GSK3β, IKKα, IKKβ, IRAK1, IRAK4, JNK1α1, JNK2α2, JNK3, ERK1, ERK2, MAPKAP-K2, MAPKAP-K3, MEK1, MKK4, MKK6, MKK7β, Mnk2, MSK1, PAK3, PDK1, PRAK, ROCK1, Rsk2, SAPK2a, SAPK2b, SAPK3, SAPK4, SRPK1, SRPK2, Syk, TAK1, TBK1, PI3-Kβ, PI3-Kγ, PI3-Kδ.

[6] = system: human eosinophils; test: Human eosinophil chemotaxis (eotaxin); type: cell-based; conditions: 1 nM eotaxin challenge
Description: These assays are in vitro assays of eosinophil chemotaxis that can be used to evaluate the ability of Rho Kinase inhibitor compounds of Formula I or II to inhibit the migration of eosinophils, an immunomodulatory cell involved in inflammation. Compounds with activity in this assay can be utilized to treat disease associated with an inflammatory response. Human Eosinophil Isolation: Peripheral blood from healthy human volunteers was collected and the PMNs separated via Ficoll-paque density centrifugation followed by hypotonic lysis of the red blood cells. Subsequently, the human eosinophils were isolated from the cell suspension via StemCell Technologies Human Eosinophil Enrichment kit (Cat. No 19256) according to the manufacturer's recommendations. Briefly, unwanted cells were specifically labeled with dextran-coated magnetic nanoparticles using bispecific Tetrameric Antibody Complexes (TAC) directed against cell surface antigens on human blood cells: […] The unwanted cells are then separated from the unlabelled eosinophils using the EasySep® magnetic isolation procedure. In Vitro Chemotaxis: […]

[7] = system: murine eosinophils; test: Murine eosinophil chemotaxis (eotaxin); type: cell-based, mouse; conditions: 10 nM eotaxin challenge
Method: These assays are in vitro assays of eosinophil chemotaxis that can be used to evaluate the ability of Rho Kinase inhibitor compounds of Formula I or II to inhibit the migration of eosinophils, an immunomodulatory cell involved in inflammation. Compounds with activity in this assay can be utilized to treat disease associated with an inflammatory response. Mouse Eosinophil Isolation: Bronchoalveolar lavage was collected from ovalbumin sensitized and challenged mice in a volume of 2.5 mL lavage buffer. The lavage buffer was 0.9% saline with 10% fetal bovine serum. The pooled lavages were maintained on ice until use. […] In Vitro Chemotaxis: […]

[8] = system: LPS-stimulated human monocytes; test: Human monocyte cytokine secretion assay (LPS); type: cell-based; conditions: range over the three cytokines and both compounds, read-out: potencies for reducing secretion of IL-1β, TNF-α and IL-9
Method: Peripheral blood from healthy human volunteers was collected and the monocytes isolated via Ficoll-paque density centrifugation. […] The cells were allowed to pre-incubate with test compound at the indicated concentration for 30 minutes (37° C., 5% CO2, humidified air); after which the supernatant was removed and media containing compound and 1 ng/mL LPS was added. Cells were allowed to incubate with compounds and LPS for 4 hours at 37° C. after which the supernatant was removed and stored at −80° C. Cytokine concentrations in the supernatant were determined using commercially available Bio-Rad Bio-plex™ kits according the manufacturer's instructions.

[9] = 15 μmol/kg/oral on days 27 to 31

T1 sequence (P28482 whole entry): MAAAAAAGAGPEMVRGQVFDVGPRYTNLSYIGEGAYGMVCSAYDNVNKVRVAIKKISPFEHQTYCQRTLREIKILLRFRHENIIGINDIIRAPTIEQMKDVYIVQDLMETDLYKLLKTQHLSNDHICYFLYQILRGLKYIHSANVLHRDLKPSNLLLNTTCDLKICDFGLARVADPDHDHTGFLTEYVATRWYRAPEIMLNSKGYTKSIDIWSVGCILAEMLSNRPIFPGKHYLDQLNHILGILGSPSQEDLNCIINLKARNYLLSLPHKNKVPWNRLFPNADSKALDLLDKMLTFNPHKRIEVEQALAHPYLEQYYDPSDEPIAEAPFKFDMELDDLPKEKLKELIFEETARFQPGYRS

Q: Which results are given for `CS(=O)(=O)Nc1cccc(CN2CCC[C@H](Nc3ccc4[nH]ncc4c3)C2)c1` [Compound 1.091, (S)-N-(3-((3-(1H-indazol-5-ylamino)piperidin-1-yl)methyl)phenyl)methanesulfonamide]?
A: airway hyperreactivity ([1]; intratracheal once a day during days 27 to 30): prevention of airway hyperreactivity; AUC (0-last) [2]: BLQ; Cmax [2]: BLQ; Tmax [2]: BLQ; t½ [2]: BLQ; eosinophils in BALF ([3]; dosed i.t. to day 30, anti-inflammatory dosing paradigm): reduction of eosinophils; IL-1β levels in BALF [4]: reduction in IL-1β; also recorded: reduction of IL-1β levels; LPS-induced pulmonary neutrophilia influx ([4]; intratracheal dosing one hour prior to LPS challenge): significant reduction; also recorded: dose-dependent inhibition

Q: Which “airway hyperreactivity to metacholine” value [1] does the source give for `c1cc2cc(CN3CCC[C@@H](Nc4ccc5[nH]ncc5c4)C3)ccc2o1` [Compound 1.131, (R)-N-(1-(benzofuran-5-ylmethyl)piperidin-3-yl)-1H-indazol-5-amine] here?
A: The value was “prevention of airway hyperreactivity”.

Q: And the “Airway eosinophil infiltration (eosinophils per ml of BALF)” value [3]?
A: The value was “reduced”.

Q: With `NC(=O)Cn1ccc2cc(CN3CCC[C@@H](Nc4ccc5[nH]ncc5c4)C3)ccc21` [Compound 1.162, (R)-2-(5-((3-(1H-indazol-5-ylamino)piperidin-1-yl)methyl)-1H-indol-1-yl)acetamide] as the molecule, how does the activity at 1 µM ([5]; 1 μM test compound, read-out: Percent inhibition ERK2) read?
A: Its activity at 1 µM is 89%.

Q: What about the activity at 10 µM ([5]; 10 μM test compound, read-out: Percent inhibition ERK2) of the same molecule?
A: Its activity at 10 µM is 60%.

Q: What does the source list for `CS(=O)(=O)Nc1cccc(CN2CC[C@@H](Nc3cccc4cnccc34)C2)c1` [Compound 2.038, (R)-N-(3-((3-(isoquinolin-5-ylamino)pyrrolidin-1-yl)methyl)phenyl)methanesulfonamide]?
A: human eosinophil chemotactic response [6]: inhibited; airway hyperreactivity to metacholine [1]: prevention of airway hyperreactivity; concentration of Eotaxin in BALF [3, 9]: reduced levels; concentration of IL-5 in BALF [3, 9]: reduced levels; concentration of IL-13 in BALF [3, 9]: reduced levels; Airway eosinophil infiltration (eosinophils per ml of BALF) [3]: reduced; murine eosinophil chemotactic response [7]: inhibited

Q: For `NC(=O)Cn1ccc2cc(CN3CC[C@@H](Nc4cccc5cnccc45)C3)ccc21` [Compound 2.059, (R)-2-(5-((3-(isoquinolin-5-ylamino)pyrrolidin-1-yl)methyl)-1H-indol-1-yl)acetamide], which “Percent inhibition ERK2” value ([5]; 1 μM test compound) is on record?
A: Its value is 56%.

Q: What about the IC50 [8] of the same molecule?
A: Its IC50 is 0.17 to 1 µM.

Q: And the “IL-1β levels in BALF” value [4]?
A: The value was “reduction in IL-1β; also recorded: reduction of IL-1β levels”.

Q: With `OCCn1ccc2cc(CN3CC[C@@H](Nc4cccc5cnccc45)C3)ccc21` [Compound 2.066, (R)-2-(5-((3-(isoquinolin-5-ylamino)pyrrolidin-1-yl)methyl)-1H-indol-1-yl)ethanol] as the molecule, how does the IC50 [8] read?
A: Its IC50 is 0.17 to 1 µM.
